The record followed here is DBAASP.

Among the test systems are Aspergillus fumigatus; Pseudomonas aeruginosa; Staphylococcus aureus; Escherichia coli; Enterococcus faecium; Salmonella typhimurium; Bacillus megaterium; Listeria monocytogenes; Escherichia coli 363; Klebsiella pneumoniae; Bacillus megaterium F04.
What all share (experiment): ≥ marks a high value that may be exact or a test limit, other limits are often not marked, values filed in µg/mL are converted to µM
For assay [1], the system named is Xanthomonas axonopodis pv. citri.
Assay [2] has as its system Escherichia coli ATCC 25922.
Assay [3] concerns Staphylococcus aureus ATCC 29313.
The test system of assay [4] is Pseudomonas aeruginosa ATCC 27853.
For assay [5], the system named is Staphylococcus aureus ATCC 49230.
The test system of assay [6] is Staphylococcus epidermidis ATCC 35984.
Assay [7] concerns Aspergillus flavus KCTC 1375.
Assay [8] has as its system Staphylococcus aureus ATCC 25923.
Assay [9] concerns Escherichia coli O157:H7 ATCC 43895.
The subject of assay [10] is Candida albicans ATCC 90028.
The test system of assay [11] is Enterococcus faecium ATCC 19434.
Assay [12] concerns Malassezia furfur KCTC 7744.
Assay [13] concerns Staphylococcus haemolyticus.
The test system of assay [14] is Escherichia coli ATCC 25726.
Assay [15] has as its system Staphylococcus epidermidis RP62A.
Assay [16] has as its system Staphylococcus epidermidis RP62A/1.
Assay [17] has as its system Klebsiella pneumoniae ATCC 700603.
The test system of assay [18] is Acinetobacter baumannii NM8.
For assay [19], the system named is Stenotrophomonas maltophilia B32/4.
The test system of assay [20] is Legionella pneumophila ATCC 33215.
Assay [21] concerns Legionella feeleii ATCC 35072.
Assay [22] concerns Legionella longbeachae ATCC 33484.
Assay [23] relates to Legionella bozemanae ATCC 33217.
Assay [24] deals with Legionella pneumophila Paris.
Assay [25] has as its system Legionella pneumophila ATCC 33216.
The subject of assay [26] is Legionella pneumophila Lens.
The test system of assay [27] is Legionella micdadei ATCC 33218.
Assay [28] relates to Legionella pneumophila Corby.
The test system of assay [29] is Legionella oakridgensis ATCC 33761.
The test system of assay [30] is Legionella pneumophila ATCC 33155.

Values after ≈ are worked out from the molar mass of the structure shown.

Usually MIC stands for the lowest concentration found to suppress growth. A low value points to inhibition by little substance. Turning to `CC(C)C[C@H](NC(=O)[C@H](CO)NC(=O)[C@H](CCCCN)NC(=O)[C@H](CC(C)C)NC(=O)[C@H](CCCCN)NC(=O)[C@H](CC(=O)O)NC(=O)[C@H](CC(C)C)NC(=O)[C@H](Cc1c[nH]c2ccccc12)NC(=O)[C@H](C)N)C(=O)NCC(=O)N[C@@H](CCCCN)C(=O)N[C@H](C(=O)N[C@H](C(=O)NCC(=O)O)C(C)C)C(C)C` [AWLDKLKSLGKVVG], the minimum inhibitory concentration (MIC) in assay [1] was 5 µM (≈ 7.57 µg/mL); in assay [2], 85 µM (≈ 129 µg/mL); in assay [3], no less than 170 µM; in assay [4] it was 170 µM (≈ 257 µg/mL).

On to `CC(C)C[C@H](NC(=O)[C@H](CC(C)C)NC(=O)[C@H](Cc1ccccc1)NC(=O)[C@H](CC(C)C)NC(=O)[C@H](CC(C)C)NC(=O)[C@@H](N)CC(C)C)C(=O)N[C@@H](CCCCN)C(=O)N[C@@H](CCCCN)C(=O)N[C@@H](CCCN=C(N)N)C(=O)N[C@@H](CCCCN)C(=O)N[C@@H](CCCCN)C(=O)N[C@@H](CCCN=C(N)N)C(=O)N[C@@H](CCCCN)C(=O)N[C@@H](Cc1ccc(O)cc1)C(=O)O` [LLLFLLKKRKKRKY], for which the MIC in assay [2] amounted to 8.66 µM (≈ 16 µg/mL); against Aspergillus fumigatus, 3.6 µM (≈ 6.65 µg/mL); in assay [5] it was 2.17 µM (≈ 4 µg/mL); in assay [4] it was 2.17 µM (≈ 4 µg/mL); in [6] it was 1.08 µM (≈ 2 µg/mL).

Turning to `CC(C)C[C@H](NC(=O)[C@H](Cc1ccc(O)cc1)NC(=O)[C@H](Cc1cnc[nH]1)NC(=O)[C@@H](NC(=O)[C@H](CC(C)C)NC(=O)[C@H](C)NC(=O)[C@H](C)NC(=O)[C@H](CCCCN)NC(=O)CNC(=O)[C@@H](NC(=O)[C@H](Cc1cnc[nH]1)NC(=O)[C@H](CCCCN)NC(=O)CNC(=O)[C@@H](NC(=O)[C@H](Cc1cnc[nH]1)NC(=O)[C@H](C)NC(=O)[C@H](C)NC(=O)[C@H](CCCCN)NC(=O)[C@@H](N)CCCCN)C(C)C)C(C)C)[C@@H](C)O)C(N)=O` [KKAAHVGKHVGKAALTHYL], the MIC in assay [7] was no less than 40 µM; in [8] it was 28.3 µM (≈ 57.4 µg/mL); with Pseudomonas aeruginosa it was 40 µM (≈ 81.1 µg/mL); against Staphylococcus aureus, 28.3 µM (≈ 57.4 µg/mL); in [9], 28.3 µM (≈ 57.4 µg/mL); in assay [10], no less than 40 µM. Also, the MIC in assay [11] is no less than 40 µM; with Escherichia coli, 28.3 µM (≈ 57.4 µg/mL); in assay [12], no less than 56.6 µM; in assay [4], 40 µM (≈ 81.1 µg/mL); with Enterococcus faecium, no less than 40 µM.

Turning to `CC[C@H](C)[C@H](NC(=O)[C@H](CCSC)NC(=O)[C@H](CC(C)C)NC(=O)[C@H](CC(C)C)NC(=O)[C@@H](NC(=O)[C@H](Cc1c[nH]c2ccccc12)NC(=O)[C@H](CC(C)C)NC(=O)[C@H](Cc1c[nH]c2ccccc12)NC(=O)[C@@H](NC(=O)[C@H](CCCCN)NC(=O)[C@H](CO)NC(=O)[C@H](CCCNC(=N)N)NC(=O)[C@H](CC(C)C)NC(=O)CN)[C@@H](C)CC)C(C)C)C(=O)N[C@@H](Cc1c[nH]c2ccccc12)C(=O)N[C@@H](CCC(N)=O)C(=O)N[C@@H](CCC(=O)O)C(=O)N[C@@H](CO)C(=O)N[C@@H](CC(N)=O)C(=O)N[C@@H](CCCCN)C(=O)N[C@@H](Cc1ccccc1)C(=O)N[C@@H](CCCCN)C(=O)N[C@@H](CCCCN)C(=O)N[C@@H](CCSC)C(=O)O` [GLRSKIWLWVLLMIWQESNKFKKM], the minimum inhibitory concentration (MIC) came to 3.1 µM (≈ 9.41 µg/mL) against Salmonella typhimurium; 0.4 µM (≈ 1.21 µg/mL) in the assay with Bacillus megaterium; 0.4 µM (≈ 1.21 µg/mL) against Listeria monocytogenes; 12.5 µM (≈ 37.9 µg/mL) in assay [13]; 3.1 µM (≈ 9.41 µg/mL) against Escherichia coli 363; 12.5 µM (≈ 37.9 µg/mL) with Klebsiella pneumoniae.

For the compound `CC[C@H](C)[C@H](N)C(=O)N[C@@H](CC(C)C)C(=O)NCC(=O)N[C@@H](CCCCN)C(=O)N[C@@H](CC(C)C)C(=O)N[C@@H](CC(C)C)C(=O)N[C@@H](CCCCN)C(=O)N[C@H](C(=O)N[C@@H](C)C(=O)N[C@@H](C)C(=O)N[C@@H](CCCCN)C(=O)N[C@@H](CC(C)C)C(=O)N[C@@H](CC(C)C)C(=O)N[C@@H](CO)C(=O)N[C@@H](CC(N)=O)C(=O)N[C@@H](CC(C)C)C(N)=O)[C@@H](C)O` [ILGKLLKTAAKLLSNL], the minimum inhibitory concentration (MIC) in assay [14] worked out at 16 µM (≈ 27.1 µg/mL); in assay [8] it was 4 µM (≈ 6.78 µg/mL); in [10], 8 µM (≈ 13.6 µg/mL); in assay [15] it was 2 µM (≈ 3.39 µg/mL); in [16], 2 µM (≈ 3.39 µg/mL); in assay [17] it was 16 µM (≈ 27.1 µg/mL). Moreover, the MIC worked out at 8 µM (≈ 13.6 µg/mL) in assay [4], 4 µM (≈ 6.78 µg/mL) in [18] and 4 µM (≈ 6.78 µg/mL) in assay [19].

In the case of `CC[C@H](C)[C@H](NC(=O)[C@H](CC(C)C)NC(=O)[C@H](CCCCN)NC(=O)[C@@H](NC(=O)[C@H](CC(C)C)NC(=O)[C@H](CC(=O)O)NC(=O)CNC(=O)[C@@H](NC(=O)[C@@H](NC(=O)[C@H](CO)NC(=O)[C@@H](NC(=O)[C@@H](NC(=O)[C@H](CC(=O)O)NC(=O)[C@H](C)NC(=O)[C@H](C)NC(=O)[C@@H](N)CCSC)[C@@H](C)CC)[C@@H](C)CC)[C@@H](C)O)[C@@H](C)CC)C(C)C)C(=O)N[C@H](C(=O)N[C@@H](CC(N)=O)C(=O)N[C@H](C(=O)N[C@H](C(=O)N[C@@H](CCCCN)C(=O)N[C@@H](CCCCN)C(=O)N[C@@H](Cc1ccccc1)C(=O)N[C@@H](CCC(N)=O)C(=O)N[C@@H](CCCCN)C(=O)O)C(C)C)[C@@H](C)O)[C@@H](C)CC` [MAADIISTIGDLVKLIINTVKKFQK], the MIC in assay [20], in assay [21], in [22], in assay [23], in assay [24] and in [25] was 18.1 µM (≈ 50 µg/mL) each time. Also, the minimal inhibitory concentration (MIC) was determined as 1.09 µM (≈ 3 µg/mL) in [26]; 18.1 µM (≈ 50 µg/mL) in [27]; 4.35 µM (≈ 12 µg/mL) against Bacillus megaterium F04; 18.1 µM (≈ 50 µg/mL) in assay [28]; 18.1 µM (≈ 50 µg/mL) in [29]; 18.1 µM (≈ 50 µg/mL) in [30].
